Measurements published in US9562082B2, “Production of glycoproteins with low N-glycolylneuraminic acid (Neu5Gc) content” (LEK Pharmaceuticals D.D., priority 2009, dated 2017).

How the values were obtained:
Recombinant CHO cells [1] = experiment: Neu5Gc content of glycoprotein secreted by CHO cells cultivated with medium additives (RP-HPLC of DMB-labelled sialic acids); format: cell-based, Chinese hamster
Text: Recombinant CHO cells expressing high titres of the glycosylated human glycoproteins were cultivated in suspension culture using rich in-house standard medium without additives according to the invention. After 2 weeks of passages, the cells were first harvested and subsequently inoculated into the same medium, however, supplemented with a range of DMSO concentrations from 0.25% to 1.50% (w/v). The effect of DMSO on growth, productivity, degree of sialylation, and Neu5Gc content was studied.
“One factor at the time”-experiments with different DMSO concentrations at 37° C. and 33° C., respectively, were performed at first in an attempt to determine the DMSO concentration and temperature which are best to minimise the Neu5Gc content on the glycoproteins secreted. To study the interaction between the parameters (i) DMSO concentration, (ii) time of DMSO addition, and (iii) time of the temperature shift (from 37° C. to 33° C.), further experiments were performed with the Design-Expert/Design-Ease programme (Stat-Ease, Inc., Minneapolis, Minn., USA) using the response surface method. Parameters (i), (ii), and (iii) were chosen as numeric factors and the axial points were set slightly out of already known ranges in order to cover a wide design space. One replicate on axial points, one replicate on factorial points and 4 centre points were performed. The results were analysed using the Design of Expert (DOE) software (Design-Expert, Version 7.1). The results of the shake flask experiments were confirmed in the Biostat®B bioreactor (Sartorius, B. Braun Biotech International, Germany). Exponentially growing cells were taken from cell culture flasks having a surface area of 225 cm^2 (Corning®Costar®). A Biostat®B bioreactor with a working volume of 5 litres was inoculated with 2×10^5 cells/ml. Cells were cultivated in a batch mode under standard conditions (37° C., pH 7.0, dissolved oxygen concentration (DOT) 50%) in the rich in-house standard medium supplemented with 0.75% (w/v) DMSO.
In order to study the effect of key intermediates of the metabolic pathway leading to the sialylation of the glycoproteins and consequently to the conversion of Neu5Ac to Neu5Gc, a two factorial minimal resolution IV design, which allows for the estimation of the main effects, was established. Said design allowed the determination which of the components NAcMan, NAcGlc, Man, Fru, and Gal has/have an impact on the degree of sialylation and conversion of Neu5Ac to Neu5Gc. To confirm the results from the DOE findings, the production medium was enriched with 8.75 mM NAcMan and 8.75 mM NAcGlc in combination with manganese (Mn^2+) salts in different concentrations, e.g., in the concentrations mentioned earlier in this application.
At the end of the batch culture the cells were removed. The glycoproteins were purified from the remaining harvests by means of immuno-affinity chromatography. Briefly, up to 2 mg of each of the glycoproteins per ml of the chromatographic resin (20-500 ml of the harvest) were loaded onto the column. Elution of the glycoproteins was performed with 0.1 M Na-phosphate buffer, pH 2.5. By adding 1 M Na-phosphate buffer, pH 7.5 (made up by a combination of Na2H-phosphate and NaH2-phosphate), the pH of the eluate was immediately adjusted to 7 and then stored for further analysis at below −60° C.
Sialic acids (Neu5Gc, Neu5Ac, Neu-5,7Ac2, Neu5Gc9Ac, Neu-5,9Ac2, Neu-5,8,9Ac3) were differentiated using highly sensitive RP-HPLC. Enzymatic desialylation with neuraminidase (a2-3,6,8,9-neuraminidase (Sialidase) from Arthrobacter ureafaciens, Roche, USA) released sialic acids. The released sialic acids were labelled with the fluorescent dye 1,2-diamino-4,5-methylenedioxybenzene (DMB). DMB-labelling is non-selective and therefore provides a pool of labelled sialic acid derivates in stoichiometric amounts. Derivates of the DMB-labelled sialic acids were separated on an RP-HPLC column using isocratic elution. […]

Recombinant CHO cells [2] = experiment: Specific growth rate; format: cell-based, Chinese hamster; settings: DMSO 0.75, temperature 37
Procedure: The specific growth rate was calculated following Equation 2 and represents the overall biomass accumulation under the growth curve from the beginning to the end of the batch process (expressed as a logarithmic value per day (day^−1)). Specific growth rate=ln(X2/X1)/(t2−t1) Equation 2 (X1 is the number of viable cells on day 0 and X2 the number of cells at the end of the repeated batches, respectively. t1 is time 0, and t2 is time 7 or the end day of the process, respectively.)

## C[S+](C)[O-] [DMSO, dimethyl sulfoxide]
Recombinant CHO cells [1]; 0.25% DMSO
  average Neu5Gc content for all glycoproteins tested: 1.46%
Recombinant CHO cells [1]; 0.5% DMSO
  average Neu5Gc content for all glycoproteins tested: 1.17%
Recombinant CHO cells [1]; 0.75% (w/v) DMSO, 5 litre bioreactor batch, vs batch without DMSO
  content of Neu5Gc lowered by: 50-60%
Recombinant CHO cells [1]; 0.75% DMSO
  average Neu5Gc content for all glycoproteins tested: 0.93%
Recombinant CHO cells [1]; 1% DMSO
  average Neu5Gc content for all glycoproteins tested: 0.88%
Recombinant CHO cells [1]; 1.25% DMSO
  average Neu5Gc content for all glycoproteins tested: 0.79%
Recombinant CHO cells [1]; darbepoetin alfa, 0.75% (w/v) DMSO, FIG. 1b
  Neu5Gc content: about 0.9%
Recombinant CHO cells [1]; darbepoetin alfa, bioreactor batch process, 0.75% (w/v) DMSO
  content of Neu5Gc: about 1%
Recombinant CHO cells [1]; darbepoetin alfa, shake flask batch process, 0.75% (w/v) DMSO
  content of Neu5Gc: about 0.8%
Recombinant CHO cells [2]
  Specific growth rate, DOE point prediction: 0.54 day⁻¹
